The text below walks through data of publication PMC4823038 (Oncotarget, 2015).

Series [1] has as its system SW620 colon cancer xenografts. The experiment in a line: Antitumor study, SW620 colon cancer xenografts. The class given is in vivo, mice. Here is the method: (§1) Compound tolerability and pharmacokinetic investigations were carried out in female BALB/c mice (Charles River). Human tumor xenografts were established s.c. in female CRTac:Ncr-Fox1(nu) athymic mice and treated as previously described. […] Initial treatment groups contained from 6 to 10 mice and animals were inspected daily and tumor size and volume measured every 2 or 3 days. Tumor volume and growth delay were determined as previously described.

A further series relates to 124 human kinases. The experiment in a line: 33P radiometric kinase profiling. The class given is biochemical. To be noted: 10μM, 124 kinases, ATP at Km.
Series [2] in a line: Tumor drug concentration in HT29 xenografts. The class given is in vivo, mice. Conditions: female, CRTac:Ncr-Fox1(nu) athymic, mouse, oral, 24h following 12.5mg/kg p.o., with gemcitabine. Here is the method: (§2) Human tumor xenografts were established s.c. in female […]) athymic mice and treated as previously described. […] Compounds were extracted from whole blood, plasma and tissue homogenates with methanol-containing internal standards using established protocols. Drug concentrations were determined using liquid chromatography/tandem mass spectrometry (LC/MS-MS) and pharmacokinetics were calculated using Pharsight WinNonLin software (version 5.2.1) as previously described.

For series [3], the system named is Calu6 RAS mutant NSCLC human tumor xenograft. The experiment in a line: Antitumor study, Calu6 RAS mutant NSCLC xenografts. Format: in vivo, mice.
Experimental: Compound tolerability and pharmacokinetic investigations were carried out in female BALB/c mice (Charles River). Human tumor xenografts were established s.c. in female CRTac:Ncr-Fox1(nu) athymic mice and treated as previously described [24, 28]. […] Initial treatment groups contained from 6 to 10 mice and animals were inspected daily and tumor size and volume measured every 2 or 3 days. Tumor volume and growth delay were determined as previously described [28].
The subject of series [4] is HT29 human colon tumor xenografts. The experiment in a line: Antitumor study, HT29 human colon tumor xenografts. Conditions: HT29. Here is the method: as §1
A general note: Xenograft models place foreign cells or tissue in a host animal.

The nature of another series: Plasma protein binding. The class given is in vitro ADME. To be noted: mouse, nude mice.
The subject of series [5] is four human tumor cell lines. The experiment in a line: SRB cytotoxicity, range over four cell lines. Conditions: read-out: GI50 single-agent, range. The class given is cell-based.
Series [6] deals with pS296 CHK1 in HT29 colon tumor cells. The experiment in a line: Western blot of gemcitabine-induced biomarkers in cells. The class given is cell-based, human. To be noted: added to gemcitabine. As to the method:
(§3) Western blotting was carried out as described. ELISA assays for pS296 CHK1 and total CHK1 were developed and validated for use in vitro and in tumor homogenates. Tumor samples for ELISA and western blotting were lysed in CHAPS buffer (1% CHAPS in 150mM NaCl, 50mM Tris-HCl pH 8.0, 1mM EDTA, 0.2mM PMSF and 1:50 Sigma Phosphatase inhibitors 2 and 3 and 1:100 Sigma protease cocktail) and immunoblotted. ELISA assays were based on commercially available kits with modifications (Cell Signalling Technologies). For pS296 CHK1 detection the commercial pS317 CHK1 antibody was replaced with a pS296 CHK1 antibody (Cell Signalling Technology). Xenograft tumor homogenate was added in duplicate to 96 well plates (100μl containing 40ug protein) and quantification of the colorimetric readout was determined at 450nm using a PerkinElmer 2103 EnVision Multilabel plate reader.

Series [7] can be described thus: Pharmacokinetics in BALB/c mice. Format: in vivo. Conditions: for bioavailability: BALB/c, 10mg/kg p.o. vs i.v., read-out: oral bioavailability (F). As to the method:
as §2

Series [8] deals with HT29 colon carcinoma cells. The experiment in a line: Cell cycle analysis (BrdU/PI). The class given is cell-based, human. From the text:
Cell cycle analysis using propidium iodide and bromodeoxyuridine staining was as described.

The subject of a further series is Calu6. The experiment in a line: Mitosis induction assay (MIA), abrogation of etoposide-induced G2 checkpoint. Format: cell-based. To be noted: Homo sapiens, Calu-6, mean±SD. As to the method: (§4) Assays were performed as described. […] Inhibition of intracellular CHK1 activity was measured using a cell based ELISA for the abrogation of an etoposide induced G2 checkpoint (mitosis induction assay, MIA [24]). The IC50 for G2 checkpoint abrogation (MIA) was determined in the presence of nocodazole using UCN01 as a positive control. […] PI values > 1 indicate potentiation of the genotoxic activity.

The subject of the next series is SW620. The series is described as above. Format: cell-based. To be noted: Homo sapiens, SW-620, mean±SD. As to the method:
as §4

The test system of a further series is HT29. Described as above. To be noted: Homo sapiens, HT-29, mean±SD. The class given is cell-based. Here is the method:
as §4

A further series deals with T1, CHK2 (Homo sapiens, UniProt O96017).
T1 construct: purchased Invitrogen
T1 sequence (O96017 whole entry): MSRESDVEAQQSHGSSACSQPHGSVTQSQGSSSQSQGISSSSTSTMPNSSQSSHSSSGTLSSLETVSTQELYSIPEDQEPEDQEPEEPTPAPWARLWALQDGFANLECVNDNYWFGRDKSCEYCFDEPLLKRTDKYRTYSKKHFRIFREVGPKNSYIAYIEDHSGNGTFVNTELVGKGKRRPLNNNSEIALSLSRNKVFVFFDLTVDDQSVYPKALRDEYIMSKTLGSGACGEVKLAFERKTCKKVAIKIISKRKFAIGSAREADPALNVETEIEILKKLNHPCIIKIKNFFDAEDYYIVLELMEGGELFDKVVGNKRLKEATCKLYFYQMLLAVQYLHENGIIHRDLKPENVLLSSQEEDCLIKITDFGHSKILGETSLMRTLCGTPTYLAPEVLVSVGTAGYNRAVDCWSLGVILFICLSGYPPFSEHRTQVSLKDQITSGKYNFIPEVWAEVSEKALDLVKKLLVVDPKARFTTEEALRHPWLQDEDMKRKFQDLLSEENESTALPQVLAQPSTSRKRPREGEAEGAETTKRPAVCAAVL
The experiment in a line: CHK2 kinase IC50 determination (Z'-Lyte). Format: biochemical. Here is the method: (§5) Other kinase IC50 determinations for CHK2 and FLT3 were performed using a commercial assay (Z'-Lyte, Invitrogen) or in-house with recombinant human CHK1 on a LabChip® EZ Reader II (PerkinElmer) or CDK1 in a DELFIA assay (PerkinElmer).

Series [9] deals with pS296 CHK1 in HT29 tumor xenografts. The experiment in a line: PK-PD biomarker study in HT29 tumor xenografts. To be noted: 50 or 100mg/kg p.o. 24h after gemcitabine 100mg/kg i.v.; P < 0.05. The class given is in vivo, mice. As to the method:
as §3

Series [10] is described as follows: Permeability across CaCo2 cell monolayer. The class given is in vitro ADME.
For series [11], the system named is Eμ-Myc driven B-cell lymphoma. The experiment in a line: Eμ-Myc driven transgenic mouse transplant model of B-cell lymphoma. The class given is in vivo, mice. To be noted: 150mg/kg p.o. once daily for 9 days. The text has this:
Transgenic Eμ-Myc mice which develop aggressive infiltrating lymphoma were established and monitored as previously described. To generate transgenic Eμ-Myc driven lymphoma allografts, tumor cells from 3 separate tumors were harvested, cells counted and injected via a tail vein. Six mice were set up per tumor to provide 3 control and 3 treated animals, giving a maximum of 9 mice per treatment group. Animals were monitored daily and continuously using RFID transponders to measure temperature, activity and water consumption as previously described. […] Bone marrow cellularity was also determined to check for tumor cell involvement. All mice were handled in compliance with local and national animal welfare guidelines.

Series [12] relates to pS296 CHK1 in Calu6 xenograft tumors. The experiment in a line: PD biomarkers in Calu6 xenograft tumors (western blot). The class given is in vivo, mice. To be noted: Calu6 xenografts, 6h after last dose of CCT245737 150mg/kg p.o. As to the method:
as §3
A general note: In western blotting, separated proteins are transferred to a membrane and probed.

In series [13] the test system is cellular CHK1 activity, four cell lines. The experiment in a line: MIA, range over four cell lines. Format: cell-based. To be noted: Homo sapiens, read-out: IC50 for cellular CHK1 inhibition (MIA), range. As to the method: as §4
A further series addresses CDK1 (Homo sapiens, UniProt P06493). The experiment in a line: CDK1 kinase IC50 determination (DELFIA / 33P radiometric). The class given is biochemical. As to the method:
as §5

The next series has as its system Eμ-Myc driven lymphoma. Also noted: method as in PMID 22120667. To be noted: 5mg/kg × 9 days; cited from earlier work.
The nature of series [14]: Antitumor study, HT29 human colon tumor xenografts. Conditions: female, mouse, in vivo, iv. Here is the method: as §1

Read-outs that look alike come from different tables or passages of the source. Some results are limits rather than exact numbers.

Chain of CDK1 (P06493 whole entry): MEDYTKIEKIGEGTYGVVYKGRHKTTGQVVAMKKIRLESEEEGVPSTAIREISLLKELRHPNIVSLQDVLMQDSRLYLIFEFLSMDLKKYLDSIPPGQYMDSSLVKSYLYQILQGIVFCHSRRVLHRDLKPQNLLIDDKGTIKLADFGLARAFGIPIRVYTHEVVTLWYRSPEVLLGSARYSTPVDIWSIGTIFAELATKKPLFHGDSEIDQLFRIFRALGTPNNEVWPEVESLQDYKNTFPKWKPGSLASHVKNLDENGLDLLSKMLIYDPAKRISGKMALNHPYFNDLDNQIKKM
Chain of CDK1 (P14635 whole entry partner): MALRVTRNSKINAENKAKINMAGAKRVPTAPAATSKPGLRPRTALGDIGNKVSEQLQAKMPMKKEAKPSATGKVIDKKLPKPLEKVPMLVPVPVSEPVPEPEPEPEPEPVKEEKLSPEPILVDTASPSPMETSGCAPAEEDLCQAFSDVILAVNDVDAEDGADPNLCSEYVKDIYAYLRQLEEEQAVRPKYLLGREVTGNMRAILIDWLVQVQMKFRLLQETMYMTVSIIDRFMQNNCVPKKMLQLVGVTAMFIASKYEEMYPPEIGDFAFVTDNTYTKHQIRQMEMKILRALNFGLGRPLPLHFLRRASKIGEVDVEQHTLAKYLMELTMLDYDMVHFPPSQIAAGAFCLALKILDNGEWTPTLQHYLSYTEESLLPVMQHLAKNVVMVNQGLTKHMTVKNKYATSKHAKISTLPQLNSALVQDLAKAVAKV

By fraction unbound is commonly meant the share of the substance not bound to proteins or other matrix. Read a high fraction unbound as much free substance. Usually GI50 stands for the concentration at which growth is held to half of that of the control. Usually half-life stands for how long it takes for the measured level to halve. One may read the IC50 as the concentration that gives 50% inhibition. Consider `N#Cc1cnc(Nc2cc(NC[C@H]3CNCCO3)c(C(F)(F)F)cn2)cn1` [CCT245737, (R)-5-((4-((morpholin-2-ylmethyl)amino)-5-(trifluoromethyl)pyridin-2-yl)amino)pyrazine-2-carbonitrile], for which, in series [1] (combination with gemcitabine, day 9), the body weight loss was found to be 4.3%. In addition, the “number of kinases (including CHK1) with > 80% inhibition” value with 124 human kinases is given as 12 kinases. Also, in [2], the concentration at 24 h is not below 3000 nM. Also, in [3] (CCT245737 150mg/kg p.o. added to gemcitabine 100mg/kg i.v. + carboplatin 5mg/kg i.p., P < 0.001), the “increase in tumor growth delay” value was 9 days. Further, in series [3] (combination with gemcitabine + carboplatin, nadir on day 3), the weight loss was 2%. In addition, the growth delay amounted to 1.0 ± 1.0 days in series [4] (alone, 150mg/kg p.o. days 1,2,5,6,9,10 (irinotecan study), mean±SD) and 0.3 ± 3.4 days in series [4] (alone, 150mg/kg p.o. days 1,2,8,9,15,16, mean±SD). In addition, the free fraction (fraction unbound) at 10 μM in the series “Plasma protein binding” is 0.244. For the same compound, the GI50 in series [5] lay in the range of 0.41 to 5.4 µM. For the same compound, in [6], the “concentration causing marked loss of pS296 signal” value was not below 0.5 μM. Further, the “concentration giving complete inhibition of pS296 signal” value in series [6] was not below 2 μM. Further, the “kinetics in whole blood (AUC vs dose)” value in [7] (BALB/c mice) is listed as “linear kinetics”. Further, in series [7] (BALB/c mice, 10mg/kg i.v.), the plasma clearance turned out to be 35 mL/min/kg. Besides, the volume of distribution in series [7] (BALB/c mice, 10mg/kg i.v.) stood at 0.19 L. The compound also gave a half-life in [7] (BALB/c mice, 10mg/kg i.v., plasma) of 2.86 h. In addition, the bioavailability in [7] (female, plasma, oral, mouse) was determined as 100%; in series [7] (female, plasma, po, mouse), 105%. The Kp in series [7] (female, mouse, spleen, other: both routes of administration (i.v. and p.o.), 10 mg/kg, BALB/c mice, both routes of administration, read-out: spleen concentration relative to plasma) was 10 to 25. Further, the “effect on etoposide-induced G2/M block” value in series [8] (after etoposide 50μM × 1h, increasing concentrations, 24h) is reported as “abrogated this G2/M block”. In addition, the “effect on cell cycle distribution, alone” value in series [8] (up to 0.5μM for 24h) is listed as “minimal effects”. The IC50 in the series on Calu6 is 0.084 ± 0.007 µM; with SW620 it was 0.22 ± 0.047 µM; in the series with HT29, 0.03 ± 0.012 µM; at CHK2 it was 9.03 µM; in series [13], 0.03 to 0.22 µM; at CDK1 it was 1.26 to 2.44 µM. The “gemcitabine-induced pS296 CHK1 signal in tumor” value in series [9] was “significantly reduced”. Moreover, the Papp in [10] (human, Caco-2, CaCo2 cell monolayer, read-out: cell permeability Pe) is 25 ×10⁻⁶ cm/s. The “active efflux by PGP” value in [10] (no asymmetry apical > basal or basal > apical) is reported as “not a substrate for active efflux by PGP”. The “effects on normal tissues (lung, bone marrow, kidney)” value in [11] is given as “minimal effects”. Also, the “tolerability (body weights)” value in [11] is recorded as “well tolerated”. Moreover, in [11] (P < 0.05), the “weight of inguinal, brachial/axillary and mesenteric lymph nodes vs vehicle” value is “significantly reduced”. In addition, the spleen weight result in series [11] (p < 0.01) was “increased significantly”. Also, in [12], the “gemcitabine + carboplatin induced pS296 CHK1 signal in tumor” value is recorded as “completely abolished”.
Regarding `CN[C@@H]1C[C@H]2O[C@@](C)([C@@H]1OC)n1c3ccccc3c3c4c(c5c6ccccc6n2c5c31)C(=O)N[C@H]4O` [UCN01], in the series with Eμ-Myc driven lymphoma, the “antitumor activity in Eμ-Myc model” value is given as “clear evidence of tumor growth inhibition” and the blood cell count entry is recorded as “decreased blood cell count”.
`Nc1ccn([C@@H]2O[C@H](CO)[C@@H](O)C2(F)F)c(=O)n1` [gemcitabine]: the growth delay was 1.5 ± 2.3 days in series [1] (gemcitabine alone 100mg/kg i.v. days 0,4,8); -0.6 ± 2.7 days in series [4] (alone, 100mg/kg i.v. days 0,7,14, mean±SD (Figure 3A)); 6 days in series [4] (gemcitabine alone at the MTD of 200mg/kg i.v. (Figure 3B)); 3 days in series [4] (gemcitabine alone, fixed dose 100mg/kg i.v. (Figure 3B)). The same compound showed an MTD in series [14] of 200 mg/kg.
Compound `CCc1c2c(nc3ccc(OC(=O)N4CCC(N5CCCCC5)CC4)cc13)-c1cc3c(c(=O)n1C2)COC(=O)[C@]3(O)CC` [irinotecan] yielded a growth delay in [4] (alone, 25mg/kg i.p. days 0,4,8, mean±SD, n = 6) of 6.2 ± 4.6 days.
